Laboratory results as given in patent publication US12077503B2, “Substituted cyclic amides and their use as herbicides” (FMC CORPORATION, priority 2015, dated 2024).

How the values were obtained:
Format in all cases: in vivo
Kochia (Kochia scoparia) [1] = test: Test A preemergence
Summary of the method: (§1)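 Seeded soil received test chemicals as a preemergence directed spray, and seedlings at one to two leaves, 2–10 cm tall, received them postemergence, in a non-phytotoxic, surfactant-containing solvent mixture. Pots were held in a greenhouse for approximately 10 d, then rated for injury from 0, no effect, to 100, complete control.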

[2] = test system: barnyardgrass (Echinochloa crus-galli); test: Test A preemergence
Summary of the method: as §1

[3] = test system: giant foxtail (Setaria faberii); test: Test A preemergence
Summary of the method: as §1

[4] = test system: pigweed (Amaranthus retroflexus); test: Test A preemergence
[5] = test system: ragweed (common ragweed, Ambrosia elatior); test: Test A preemergence
Summary of the method: as §1

[6] = test system: ryegrass, Italian (Italian ryegrass, Lolium multiflorum); test: Test A preemergence
Summary of the method: as §1

[7] = test system: Galium (catchweed bedstraw, Galium aparine); test: Test A postemergence
Summary of the method: as §1

Kochia (Kochia scoparia) [8] = test: Test A postemergence
Summary of the method: as §1

[9] = test system: barnyardgrass (Echinochloa crus-galli); test: Test A postemergence
Summary of the method: as §1

[10] = test system: blackgrass (Alopecurus myosuroides); test: Test A postemergence
Summary of the method: as §1

corn (Zea mays) = test: Test A postemergence
Summary of the method: as §1

[11] = test system: giant foxtail (Setaria faberii); test: Test A postemergence
Summary of the method: as §1

[12] = test system: pigweed (Amaranthus retroflexus); test: Test A postemergence
Summary of the method: as §1

[13] = test system: ragweed (common ragweed, Ambrosia elatior); test: Test A postemergence
Summary of the method: as §1

[14] = test system: ryegrass, Italian (Italian ryegrass, Lolium multiflorum); test: Test A postemergence
Summary of the method: as §1

[15] = test system: wheat (Triticum aestivum); test: Test A postemergence
Summary of the method: as §1

[16] = test system: barnyardgrass (Echinochloa crus-galli); test: Test B flooded paddy test; conditions: Flood, 250 g ai/ha; 0 to 100 scale where 0 is no effect and 100 is complete control; 13 to 15 d
Summary of the method: (§2)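 2-leaf plants; pots flooded 3 cm over soil; cpd added to paddy water; depth held; greenhouse 13–15 d; visual rating vs controls, 0 = no effect, 100 = complete control.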

[17] = test system: ducksalad (Heteranthera limosa); test: Test B flooded paddy test; conditions: Flood, 250 g ai/ha; 0 to 100 scale where 0 is no effect and 100 is complete control; 13 to 15 d
Summary of the method: as §2

rice (Oryra sativa) = test: Test B flooded paddy test; conditions: Flood, 250 g ai/ha; 0 to 100 scale where 0 is no effect and 100 is complete control; 13 to 15 d
Summary of the method: as §2

[18] = test system: sedge, umbrella (small-flower umbrella sedge, Cyperus difformis); test: Test B flooded paddy test; conditions: Flood, 250 g ai/ha; 0 to 100 scale where 0 is no effect and 100 is complete control; 13 to 15 d
Summary of the method: as §2

[19] = 125 g ai/ha, preemergence, 0 to 100 scale (0 no effect, 100 complete control)
[20] = Preemergence, 500 g ai/ha, 0 is no effect, 100 is complete control
[21] = 500 g ai/ha, postemergence, 0 to 100 scale, 0 no effect, 100 complete control
[22] = Postemergence, 125 g ai/ha, visual injury, 0 to 100 scale (0 no effect, 100 complete control), approx. 10 d

## Cc1cccc(C2CNC(=O)C2C(=O)Nc2cccc(F)c2F)c1 (racemic) [Compound 373]
Kochia (Kochia scoparia) [1]; [19]
  Plant response rating, Kochia: 0
Kochia (Kochia scoparia) [1]; [20]
  Kochia plant response rating (0 to 100 scale): 30
[2]; [19]
  Plant response rating, Barnyardgrass: 90
[2]; [20]
  Barnyardgrass plant response rating (0 to 100 scale): 90
[3]; [19]
  Plant response rating, Foxtail, Giant: 80
[3]; [20]
  Foxtail, Giant plant response rating (0 to 100 scale): 90
[4]; [19]
  Plant response rating, Pigweed: 0
[4]; [20]
  Pigweed plant response rating (0 to 100 scale): 20
[5]; [19]
  Plant response rating, Ragweed: 0
[5]; [20]
  Ragweed plant response rating (0 to 100 scale): 30
[6]; [19]
  Plant response rating, Ryegrass, Italian: 30
[6]; [20]
  Ryegrass, Italian plant response rating (0 to 100 scale): 40
[7]; [21]
  Plant response rating, Galium: 30
[7]; [22]
  Plant response rating, Galium: 30
Kochia (Kochia scoparia) [8]; [21]
  Plant response rating, Kochia: 40
Kochia (Kochia scoparia) [8]; [22]
  Plant response rating, Kochia: 0
[9]; [21]
  Plant response rating, Barnyardgrass: 80
[9]; [22]
  Plant response rating, Barnyardgrass: 80
[10]; [21]
  Plant response rating, Blackgrass: 40
[10]; [22]
  Plant response rating, Blackgrass: 20
Corn (Zea mays); [21]
  Plant response rating, Corn: 50
Corn (Zea mays); [22]
  Plant response rating, Corn: 20
[11]; [21]
  Plant response rating, Foxtail, Giant: 70
[11]; [22]
  Plant response rating, Foxtail, Giant: 40
[12]; [21]
  Plant response rating, Pigweed: 30
[12]; [22]
  Plant response rating, Pigweed: 20
[13]; [21]
  Plant response rating, Ragweed: 0
[13]; [22]
  Plant response rating, Ragweed: 0
[14]; [21]
  Plant response rating, Ryegrass, Italian: 20
[14]; [22]
  Plant response rating, Ryegrass, Italian: 30
[15]; [21]
  Plant response rating, Wheat: 70
[15]; [22]
  Plant response rating, Wheat: 20
[16]
  Plant response rating, Barnyardgrass: 60
[17]
  Plant response rating, Ducksalad: 100
Rice (Oryra sativa)
  Plant response rating, Rice: 20
[18]
  Plant response rating, Sedge, Umbrella: 0
